Tests used:
PANC-1 xenograft mice [1] = test: [^18F]FAPI-74 PET imaging in PANC-1 xenograft mice; type: in vivo
Method: PET images were acquired with a small animal PET scanner (Siemens Inveon PET/CT) 3 weeks after the implantation in PANC-1 xenograft mice (9 weeks old, body weight = 25.3 ± 1.2 g, n = 9). Under 2% isoflurane anesthesia, [^18F]FAPI-74 (12.4 ± 1.7 MBq) was injected in the tail vein. Dynamic PET scans (scan duration = 70 min, n = 2) were started simultaneously with the bolus injection. Static PET scans (scan duration = 10 min, n = 7) were performed 1 h after injection, followed by a CT scan. PET data were reconstructed into 2-min frames in the dynamic PET scan (2 min × 35 frames) and one frame in the static PET scan by three-dimensional ordered-subset expectation–maximization (16 subsets, 2 iterations), with attenuation and scatter correction. Regions of interest were drawn on the muscle, heart, lungs, liver, gallbladder, kidneys, intestine, and tumour. The mean standardized uptake values (SUVmean) and maximum standardized uptake values (SUVmax) were measured using PMOD (Version 4.0).

PANC-1 xenograft mice [2] = test: Biodistribution of [^177Lu]FAPI-46 and [^225Ac]FAPI-46 in PANC-1 xenograft mice (gamma counter); type: in vivo; conditions: for organs with relatively high accumulation / residence: 24 h post-injection; for clearance from organs: between 3 and 24 h post-administration
Method: [^177Lu]FAPI-46 (3.3 ± 0.1 MBq) and [^225Ac]FAPI-46 (12.5 ± 0.7 kBq) were injected into PANC-1 xenograft mice (9 weeks old, body weight = 23.9 ± 0.9 g, n = 12). After euthanasia by deep inhalation anesthesia with isoflurane, the brain, thyroid gland, salivary glands, lungs, heart, liver, spleen, pancreas, stomach, small intestine, large intestine, kidneys, bone (femur), bladder, testis, tumour, blood, and urine were removed and weighed at 3 h and 24 h. Radioactivity was also measured using a gamma counter (2480 Wizard^2 Gamma Counter, Perkin Elmer, USA).

PANC-1 xenograft = test: Treatment effect on tumour size in PANC-1 xenograft mice; type: in vivo; conditions: for relative ratio of the tumour size compared to the control group: day 40
Method: Male nude mice (BALB/cSlc-nu/nu) were purchased from Japan SLC Inc. (Hamamatsu, Japan). Animals were housed under a 12-h light/12-h dark cycle and allowed free access to food and water. The mice were injected with PANC-1 cells (1 × 10^7 cells) in a mixture of phosphate-buffered saline and Matrigel (0.1 mL, 1:1; BD Biosciences, Franklin Lakes, NJ, USA). Tumour xenograft models were evaluated 3 weeks after transplantation of PANC-1 cells (tumour volume = 716 ± 304 mm^3). Euthanasia was performed in the following conditions: (1) when the animals had unbearable suffering, (2) when a significant decrease in activity or a marked decrease in food and water intake was observed, and (3) at the end of the observation period (up to 44 days for [^177Lu]FAPI-46 and 32 days for [^225Ac]FAPI-46). Euthanasia was performed by deep anesthesia using isoflurane inhalation.
(§1) [^177Lu]FAPI-46 and [^225Ac]FAPI-46 were injected into PANC-1 xenograft mice via the tail vein (9 weeks old, body weight = 22.7 ± 2.1 g). Mice injected with [^177Lu]FAPI-46 were divided into four groups according to the injected dose: 3 MBq (3.2 ± 0.1 MBq, n = 6), 10 MBq (10.2 ± 0.5 MBq, n = 6), 30 MBq (30.5 ± 2.7 MBq, n = 6) and control (n = 4) groups. Mice injected with [^225Ac]FAPI-46 were divided into four groups: 3 kBq (2.9 ± 0.0 kBq, n = 3), 10 kBq (8.5 ± 1.1 kBq, n = 2), 30 kBq (30.5 ± 0.7 kBq, n = 6) and control (n = 7) groups. The tumour size and body weight were measured with a caliper using the elliptical sphere model calculation, three times per week during the observation period.

[3] = Body weight of treated PANC-1 xenograft mice; type: in vivo
Method: as §1

PANC-1 xenograft mice [4] = test: Histological analysis (H&E) of kidneys and tumours after treatment; type: in vivo
Method: All mice were killed after [^18F]FAPI-74 PET imaging, and tumour xenografts were removed. Immunohistochemical staining was performed using anti-FAP alpha antibody (ab53066; Abcam, Cambridge, UK), and the Dako EnVision + System—HRP Labelled Polymer Anti-Rabbit (K4003) (DAKO Corp., Glostrup, Denmark). To evaluate toxicity, the kidneys were removed after the mice treated with [^177Lu]FAPI-46 and [^225Ac]FAPI-46 were sacrificed. The tissues were fixed in 10% neutral buffered formalin solution for paraffin blocks and stained with hematoxylin and eosin (H&E). Tumour blocks in all mice were also stained with H&E.

PANC-1 xenograft mice [5] = conditions: data not shown
[6] = static PET scan 1 h after i.v. injection

With `N#C[C@@H]1CCCN1C(=O)CNC(=O)c1ccnc2ccc(OCCCN3CCN(C(=O)CN4CCN(CC(=O)[O-])CCN(CC(=O)[O-])CC4)CC3)cc12.[18F][Al+2]` [[^18F]FAPI-74] the “SUVmean in the gallbladder” value (PANC-1 xenograft mice [1]; [6]) was 0.66 ± 0.15, the “SUVmean in the heart” value (PANC-1 xenograft mice [1]; [6]) was 0.08 ± 0.01 and the “SUVmean in the intestine” value (PANC-1 xenograft mice [1]; [6]) was 0.61 ± 0.48. The “SUVmean in the kidneys” value (PANC-1 xenograft mice [1]; [6]) was 0.39 ± 0.07, the “SUVmean in the liver” value (PANC-1 xenograft mice [1]; [6]) was 0.14 ± 0.02 and the “SUVmean in the muscle” value (PANC-1 xenograft mice [1]; [6]) was 0.05 ± 0.01. For the same compound, the “SUVmean in the tumour” value (PANC-1 xenograft mice [1]; [6]) was 0.24 ± 0.04 and the “clearance and tumour washout on dynamic PET” value (PANC-1 xenograft mice [1]; time-activity curve) was “cleared rapidly by the kidneys but washout from the tumour occurred slowly”.

For `CN(CCCN1CCN(C(=O)CN2CCN(CC(=O)[O-])CCN(CC(=O)[O-])CCN(CC(=O)[O-])CC2)CC1)c1ccc2nccc(C(=O)NCC(=O)N3CC(F)(F)C[C@H]3C#N)c2c1.[177Lu+3]` [[^177Lu]FAPI-46], the “%ID/g of the urine” value (PANC-1 xenograft mice [2]; 3 h post-administration, PANC-1 xenograft mice) was 21.2 ± 15.3 %ID/g, the “organs with relatively high accumulation / residence” value (PANC-1 xenograft mice [2]) was “relatively high tracer accumulation was seen in the tumour, large intestine, and bone” and the “uptake in the liver” value (PANC-1 xenograft mice [2]; PANC-1 xenograft mice) was “low”. The clearance from organs (PANC-1 xenograft mice [2]) was “Most organs showed fast clearance”, the “tumour growth after administration” value (PANC-1 xenograft; 3, 10, 30 MBq, multiple comparisons across the doses) was “inhibitory trend after administration, although the changes were not statistically significant” and the “therapeutic effects (time course)” value (PANC-1 xenograft; 3 MBq and 10 MBq groups) was “slower and were seen until day 12”. For the same compound, the “relative ratio of the tumour size compared to the control group” value (“relative ratio of the tumour size” for short) (PANC-1 xenograft; 3 MBq group) was 0.62, the “relative ratio of the tumour size” value (PANC-1 xenograft; 10 MBq group) was 0.56 and the “time after administration at which tumour-suppressive effects were observed” value (PANC-1 xenograft; 30 MBq group) was 9 days. For the same compound, the “relative ratio of the tumour size” value (PANC-1 xenograft; 30 MBq group) was 0.27, the “body weight compared to the controls” value ([3]; 10 MBq and 30 MBq groups) was “slight decrease without statistical significance” and the “histological changes in the kidneys (H&E)” value (PANC-1 xenograft mice [4]; day 44 after administration) was “No histological changes”. The “histological changes in the tumour (H&E) compared to controls” value (PANC-1 xenograft mice [4]; day 44 after administration) was “No significant difference”.

In the case of `[177Lu+3].[Cl-].[Cl-].[Cl-]` [[^177Lu]LuCl3, Lutetium-177 chloride], the lethal dose (PANC-1 xenograft mice [5]) is reported as 30 MBq.

In the case of `CN(CCCN1CCN(C(=O)CN2CCN(CC(=O)[O-])CCN(CC(=O)[O-])CCN(CC(=O)[O-])CC2)CC1)c1ccc2nccc(C(=O)NCC(=O)N3CC(F)(F)C[C@H]3C#N)c2c1.[225Ac+3]` [[^225Ac]FAPI-46], the “organs with relatively high accumulation / residence” value (PANC-1 xenograft mice [2]) is reported as “relatively higher residence time in the tumour, spleen, liver, stomach, small intestine, and large intestine”, the “uptake in the liver” value (PANC-1 xenograft mice [2]; PANC-1 xenograft mice) is reported as “high accumulation in the liver” and the clearance from organs (PANC-1 xenograft mice [2]) is reported as “Most organs showed fast clearance”. For the same compound, the tumour-suppressive effects (PANC-1 xenograft; 3 kBq group) was “very mild”, the “tumour growth after treatment” value (PANC-1 xenograft; 10 kBq and 30 kBq groups) was “suppressed immediately after treatment” and the “tumour size vs control group” value (PANC-1 xenograft; 30 kBq group) was “significantly smaller than those in the control group on days 5–9 and day 25”. The “day at which tumour regrowth began” value (PANC-1 xenograft; high dose) was 12 days, the body weight recovery ([3]; 3 kBq and 10 kBq groups) was “recovery after day 7” and the body weight ([3]; all groups (3, 10, 30 kBq)) was “decreasing trend in the first week”. The “histological changes in the kidneys (H&E)” value (PANC-1 xenograft mice [4]; day 32 after administration) was “No histological changes”.
